Test results from US4416888A, “3-(2-(4-Piperidyl)-1-alkyl-ethyl)-indoles and their use as medicaments” (Pharmindustrie, priority 1981, dated 1983).
Read-outs that look alike come from different tables or passages of the source.

How the values were obtained:
[1] = tested on: serotonin uptake by human blood platelets; assay: Inhibition of serotonin uptake in human blood platelets; type: cell-based; conditions: Platelet, read-out: Inhibition of serotonin uptake I50
From the text: It is known that serotonin uptake by the blood platelets is a good model for the uptake of this amine by the neurons (cf. J. Tuomisto, J. Pharm., Pharmac., 26, 92 (1974). When applied to the study of medicaments, any method involving the use of blood platelets is of great interest because it allows the use of human cells, so that its estimation character is good.
"Platelets Function and Thrombosis, a Review of Methods" p. 335 (Plenum Press, London, 1972).
1. Inhibition of Serotonin Uptake
The results are expressed by inhibitory dose 50% or I50 which represents the dose of the product in micromoles per liter which reduce the rate of serotonin uptake by 50%.

[2] = tested on: serotonin release, human blood platelets; assay: Serotonin release from human blood platelets; type: cell-based; conditions: for activation at 50 µM: Platelet, product concentration 5 × 10^-5 moles per liter, increase relative to controls, human blood platelets, read-out: Percent of increased serotonin release
Description: "Platelets Function and Thrombosis, a Review of Methods" p.
The action of the products on serotonin release is tested at a concentration of 5×10^-5 moles per liter.

[3] = tested on: male mice CD1 (Charles RIVER); assay: Acute toxicity in male mice CD1, oral administration; type: in vivo; conditions: male CD1 mouse
Description: The acute toxicity of the products has been established in male mice CD1 (Charles RIVER) by oral administration. The compounds according to the invention are relatively not very toxic substances. For example, the product of Example 1 is non-toxic in the mouse if administered at a dose of 100 mg/kg.

Structure (SMILES)	IC50 ([1]; Homo sapiens) [nM]	activation at 50 µM [2] [%]	Acute toxicity at 100 mg/kg [3]	IC50 ([1]; human blood platelets, dose reducing the rate of serotonin uptake by 50%) [nM]	Serotonin release (in words) ([2]; compared with p-chloroamphetamine)
CC(CC1CCNCC1)c1c[nH]c2ccccc12 (stereo not shown) [Example 1, 3-[2-(4-Piperidyl)-1-Methyl-Ethyl]-Indole]	50	62	non-toxic	–	–
CN(C)CCCN1c2ccccc2CCc2ccccc21 [Imipramine]	400	12	–	–	–
c1ccc2c(CCC3CCNCC3)c[nH]c2c1 [Indalpine, 3-[2-(4-piperidyl)-ethyl]-indole]	–	22	–	35	–
CC(N)Cc1ccc(Cl)cc1 (stereo not shown) [p-chloroamphetamine]	12000	51	–	–	induce serotonin release
